Reference: patent publication US20130317095A1, “Use of Artemisine Derivatives and Pharmaceutical Salts Thereof” (Shanghai Institute of Materia Medica, Chinese Academy of …, priority 2011, published 2013)

How the values were obtained:
[1] = test system: Kasumi-1 cells; assay: MTT inhibition test, Kasumi-1 cells; type: cell-based; conditions: Homo sapiens, 48 h
Method: (§1) First dissolve SM1044 in triple distilled water, concentration: 1 mg/ml, then choose typical AML cell lines such as Kasumi-1, NB4-R1, HL60 and U937 cells to perform the experiments. Plate 2.5×10^5 cells in dishes, respectively, blank group, control group without SM1044, and groups with SM1044 in various concentrations, and 3 wells for each concentration. Add MTT (5 mg/ml) to each well after incubating for a certain period, and incubate the plate for further 4 h. Centrifuge and aspirate 180 μl supernatant. Add 180 μl DMSO to each well, and place the plate a shaking table for 15 min. Measure the absorbance(A) at 570 nm using a microplate reader, and calculate the half maximal inhibitory concentration (IC50).

[2] = test system: NB4-R1 cells; assay: MTT inhibition test, NB4-R1 cells; type: cell-based; conditions: 48 h
Method: as §1

[3] = test system: HL60 cells; assay: MTT inhibition test, HL60 cells; type: cell-based; conditions: Homo sapiens, HL-60, 48 h
Method: as §1

[4] = test system: U937 cells; assay: MTT inhibition test, U937 cells; type: cell-based; conditions: Homo sapiens, U-937, 48 h
Method: as §1

[5] = test system: Kasumi-1 cells; assay: Annexin V-FITC/PI flow cytometry apoptosis, Kasumi-1; type: cell-based; conditions: Kasumi-1, 24-48 hours, various concentrations
Method: (§2) Respectively plate 3×10^5˜5×10^5 cells/m1 of Kasumi-1, NB4-R1, HL60 and U937cells in dishes. Setting control group (0 μM) and groups with SM1044 in various concentrations, incubate for 24 h and 48 h. Harvest cells and wash cells with pre-cooling phosphate buffer twice. Resuspend the cells in 200 μL binding buffer, and add 5 μL Annexin V-FITC and 5 μL propidium iodide (PI), gently mixing, incubating for 15 min at room temperature in the dark, analyzing by flow cytometry in 1 hour.

[6] = test system: NB4-R1 cells; assay: Annexin V-FITC/PI flow cytometry apoptosis, NB4-R1; type: cell-based; conditions: NB4-R1, 24-48 hours, various concentrations
Method: as §2

[7] = test system: HL60 cells; assay: Annexin V-FITC/PI flow cytometry apoptosis, HL60; type: cell-based; conditions: HL60, 24-48 hours, various concentrations
Method: as §2

[8] = test system: U937 cells; assay: Annexin V-FITC/PI flow cytometry apoptosis, U937; type: cell-based; conditions: U937, 24-48 hours, various concentrations
Method: as §2

[9] = test system: Kasumi-1 cells; assay: Loss of mitochondrial membrane potential, DiOC6(3) flow cytometry, Kasumi-1; type: cell-based
Method: (§3) Respectively plate 3×10^5˜5×10^5 cells/ml of Kasumi-1, NB4-R1, HL60 and U937cells in dishes. Setting control group (0 μM) and groups with SM1044 in various concentrations, incubate for 24 h and 48 h. Add 20 nM DiOC6(3) and incubate for 15 min at 37° C. in the dark. Wash cells with PBS twice, and resuspend the cells in 100 μLPBS, analyzing by flow cytometry. The cells which are DiOC6(3) negative are those that lose mitochondrial membrane potential. […] There are at least two broad pathways that lead to Apoptosis, an “Extrinsic” and an “Intrinsic” Pathway, and the loss of mitochondrial membrane potential is very closely related to intrinsic pathway.

[10] = test system: NB4-R1 cells; assay: Loss of mitochondrial membrane potential, DiOC6(3) flow cytometry, NB4-R1; type: cell-based
Method: as §3

[11] = test system: HL-60 cells; assay: Loss of mitochondrial membrane potential, DiOC6(3) flow cytometry, HL-60; type: cell-based
Method: as §3

[12] = test system: U937 cells; assay: Loss of mitochondrial membrane potential, DiOC6(3) flow cytometry, U937; type: cell-based
Method: as §3

[13] = test system: caspase-3, caspase-8 and/or caspase-9 in NB4-R1 cells; assay: Western blot of apoptosis-related proteins, NB4-R1; type: cell-based; conditions: NB4-R1, 24 hours
Method: (§4) Respectively plate 3×10^5˜5×10^5 cells/ml of NB4-R1, HL60 and U937 cells in dishes. Setting control group (0 μM) and groups with SM1044 in various concentrations, and incubating for 24 hours. Extracting whole protein of the cells, detect the quantitive variation of […] related proteins (PARP, caspase-3, caspase-8, caspase-9) by antibodies through western blot. Caspase family plays an important role in mediating apoptosis. There are at least two broad pathways that lead to Apoptosis. One is extracellular signals activating intracellular caspase-8, etc, the other is mitochondria-derived activators of caspases activating caspase-9, etc. Therefore the activaigted caspases activate apoptotic excutants—caspase3 to induce apoptosis, and PARP is the substrate of caspase-3.

[14] = test system: caspase-3, caspase-8 and/or caspase-9 in HL60 cells; assay: Western blot of apoptosis-related proteins, HL60; type: cell-based; conditions: HL60, 24 hours
Method: as §4

[15] = test system: caspase-3, caspase-8 and/or caspase-9 in U937 cells; assay: Western blot of apoptosis-related proteins, U937; type: cell-based; conditions: U937, 24 hours
Method: as §4

[16] = test system: AML1-ETO fusion gene; assay: RT-PCR of AML1-ETO fusion gene mRNA in Kasumi-1 cells; type: cell-based; conditions: Kasumi-1, 24 hours
Method: (§5) Plate 1×10^7 Kasumi-1 cells with 20 mL medium in dish. Setting control group (0 μM) and groups with SM1044 in various concentrations, and incubating for 24 hours. Extract the whole RNA, and detect the variation of fusion gene at the mRNA level by RT-PCR (FIG. 5A). […] Plate 5×10^5 Kasumi-1 cells in a dish. Setting control group (0 μM) and groups with SM1044 in various concentrations, and incubating for 24 hours. Extracting whole protein of the cells, detect the variation of AML1-ETO fusion protein by ETO antibody through western blot (FIG. 5B). […] It can be concluded that SM1044 doesn't effect the transcription of AML1-ETO fusion gene, but can induce the degradation of the fusion protein. As the typical fusion gene of AML-M2b, AML1-ETO fusion protein plays an important role in the occurrence of leukemia, which can be a target for medical treatments.

[17] = molecular target: T1, AML1-ETO fusion protein (Homo sapiens, UniProt Q01196+Q06455); assay: Western blot of AML1-ETO fusion protein in Kasumi-1 cells; type: cell-based; conditions: Kasumi-1, 1 μM/L, 24 hours
T1 construct: Extracting whole protein of the cells; endogenous in cells; host or cells: Kasumi-1 cells
T1 sequence (Q01196+Q06455 fused): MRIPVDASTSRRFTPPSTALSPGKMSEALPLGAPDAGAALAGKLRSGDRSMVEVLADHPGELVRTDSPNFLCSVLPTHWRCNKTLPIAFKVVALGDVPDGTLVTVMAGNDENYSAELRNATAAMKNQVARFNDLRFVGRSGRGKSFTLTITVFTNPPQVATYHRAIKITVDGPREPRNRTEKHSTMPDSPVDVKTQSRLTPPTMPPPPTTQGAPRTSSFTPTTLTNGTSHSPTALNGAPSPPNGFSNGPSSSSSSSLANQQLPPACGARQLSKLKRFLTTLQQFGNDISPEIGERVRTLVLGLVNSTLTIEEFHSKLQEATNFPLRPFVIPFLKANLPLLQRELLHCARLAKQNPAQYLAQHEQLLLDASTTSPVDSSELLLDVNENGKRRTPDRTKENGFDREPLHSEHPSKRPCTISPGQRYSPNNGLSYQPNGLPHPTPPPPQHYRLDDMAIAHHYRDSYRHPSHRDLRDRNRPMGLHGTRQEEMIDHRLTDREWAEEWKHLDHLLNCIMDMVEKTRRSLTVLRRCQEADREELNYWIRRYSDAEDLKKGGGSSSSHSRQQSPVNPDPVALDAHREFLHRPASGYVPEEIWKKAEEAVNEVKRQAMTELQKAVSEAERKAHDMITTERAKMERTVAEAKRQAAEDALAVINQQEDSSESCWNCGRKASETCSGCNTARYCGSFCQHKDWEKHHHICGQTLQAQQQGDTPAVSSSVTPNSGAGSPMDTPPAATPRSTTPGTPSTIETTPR
Method: as §5

[18] = test system: oncogene c-myc; assay: Western blot of c-myc expression in HL60 cells; type: cell-based; conditions: HL60, above 1 μM/L, 24 hours
Method: Plate 3×10^5/mL HL60 cells in dishes. Setting control group (0 μM) and groups with SM1044 in various concentrations, and incubating for 24 hours. Extracting whole protein of the cells, detect the variation of expression of oncogene c-myc by c-myc antibody through western blot. Over-expression of oncogene c-myc is a character of HL60 cells.

[19] = test system: Kasumi-1 cells; assay: Cell cycle analysis, PI flow cytometry, Kasumi-1; type: cell-based; conditions: for cells in G0/G1 phase / cells in G2/M phase / cells in S phase: 24 hours
Method: (§6) Plate 5×10^5/mL Kasumi-1 cells and HL60 cells respectively in dishes. Setting control group (0 μM) and groups with SM1044 in various concentrations, and incubating for 24 hours (kasumi-1 cells) or 12 hours (HL60 cells). Harvest the cells, wash cells with PBS twice, and add 70% ice cold ethanol overnight to fix the cells. Wash cells with PBS, and resuspend the cells in PBS with 10 mg/ml RNase, incubating at 37° C. for 30 min. Add 50 μg/ml propidium iodide (PI), analyzing the distribution of DNA contents by flow cytometry in 1 hour.

[20] = test system: HL60 cells; assay: Cell cycle analysis, PI flow cytometry, HL60; type: cell-based; conditions: for cells in G0/G1 phase / cells in G2/M phase / cells in S phase: 12 hours
Method: as §6

[21] = test system: transplanted tumor with Kasumi-1 cells; assay: Mouse transplanted tumor model, Kasumi-1; type: in vivo; conditions: mice, Kasumi-1 tumor under the skin, intraperitoneal 0.125 ml per day, 18-35 d
Method: (§7) Developing mouse transplanted tumor models with acute myeloid leukemic cell lines such as Kasumi-1, HL60 and U937 cells, inject 1×10^7 leukemic cells under the skin. When the tumors are 5 mm in diameter, divide the mice into two groups, control group(con) and groups with SM1044 in various concentrations. Mice intraperitoneally infused with 0.125 ml (kasumi-1 and H160 cells) or 0.1 ml (U937 cells) SM1044 per day, while mice in control groups get equivalent saline, for a course of 18-35 d, measuring the tumors everyday.

[22] = test system: transplanted tumor with HL60 cells; assay: Mouse transplanted tumor model, HL60; type: in vivo; conditions: mice, HL60 tumor under the skin, intraperitoneal 0.125 ml per day, 18-35 d
Method: as §7

[23] = test system: transplanted tumor with U937 cells; assay: Mouse transplanted tumor model, U937; type: in vivo; conditions: mice, U937 tumor under the skin, intraperitoneal 0.1 ml per day, 18-35 d
Method: as §7

## C[C@H]1[C@@H](OCCNCCO[C@H]2O[C@@H]3O[C@@]4(C)CC[C@H]5[C@H](C)CC[C@@H]([C@H]2C)[C@@]35OO4)O[C@@H]2O[C@@]3(C)CC[C@H]4[C@H](C)CC[C@@H]1[C@@]24OO3.O=C(O)/C=C\C(=O)O [SM1044, diarteethe amine maleate]
[1]
  IC50: 170 nM
[2]
  IC50: 21 nM
[3]
  IC50: 40 nM
[4]
  IC50: 20 nM
[5]
  apoptosis induction: can induce apoptosis
[6]
  apoptosis induction: can induce apoptosis
[7]
  apoptosis induction: can induce apoptosis
[8]
  apoptosis induction: can induce apoptosis
[9]; 0.1 μM, 24 h
  percentage of DiOC6(3) negtive Kasumi-1 cells: 24.1%
[9]; 0.1 μM, 48 h
  percentage of DiOC6(3) negtive Kasumi-1 cells: 44.9%
[9]; 1 μM, 24 h
  percentage of DiOC6(3) negtive Kasumi-1 cells: 33.8%
[9]; 1 μM, 48 h
  percentage of DiOC6(3) negtive Kasumi-1 cells: 47.1%
[9]; 5 μM, 24 h
  percentage of DiOC6(3) negtive Kasumi-1 cells: 63.2%
[9]; 5 μM, 48 h
  percentage of DiOC6(3) negtive Kasumi-1 cells: 79.2%
[10]; 0.1 μM, 24 h
  percentage of DiOC6(3) negative NB4-R1 cells: 13.9%
[10]; 0.1 μM, 48 h
  percentage of DiOC6(3) negative NB4-R1 cells: 16.3%
[10]; 1 μM, 24 h
  percentage of DiOC6(3) negative NB4-R1 cells: 17.1%
[10]; 1 μM, 48 h
  percentage of DiOC6(3) negative NB4-R1 cells: 33.0%
[10]; 5 μM, 24 h
  percentage of DiOC6(3) negative NB4-R1 cells: 15.0%
[10]; 5 μM, 48 h
  percentage of DiOC6(3) negative NB4-R1 cells: 30.0%
[11]; 0.1 μM, 24 h
  percentage of DiOC6(3) negative HL-60 cells: 23.8%
[11]; 0.1 μM, 48 h
  percentage of DiOC6(3) negative HL-60 cells: 61.7%
[11]; 1 μM, 24 h
  percentage of DiOC6(3) negative HL-60 cells: 25.6%
[11]; 1 μM, 48 h
  percentage of DiOC6(3) negative HL-60 cells: 77.1%
[11]; 5 μM, 24 h
  percentage of DiOC6(3) negative HL-60 cells: 48.5%
[11]; 5 μM, 48 h
  percentage of DiOC6(3) negative HL-60 cells: 81.1%
[12]; 0.1 μM, 24 h
  percentage of DiOC6(3) negative U937 cells: 4.3%
[12]; 0.1 μM, 48 h
  percentage of DiOC6(3) negative U937 cells: 5.9%
[12]; 1 μM, 24 h
  percentage of DiOC6(3) negative U937 cells: 5.2%
[12]; 1 μM, 48 h
  percentage of DiOC6(3) negative U937 cells: 5.6%
[12]; 5 μM, 24 h
  percentage of DiOC6(3) negative U937 cells: 9.4%
[12]; 5 μM, 48 h
  percentage of DiOC6(3) negative U937 cells: 16.2%
[13]
  activated apoptosis-related proteins (caspase-3, caspase-8 and/or caspase-9): increase
[14]
  activated apoptosis-related proteins (caspase-3, caspase-8 and/or caspase-9): increase
[15]
  activated apoptosis-related proteins (caspase-3, caspase-8 and/or caspase-9): increase
[16]
  variation of AML1-ETO fusion gene at the mRNA level: no effect on the transcription of fusion gene
[17]
  degradation of AML1-ETO fusion protein: can induce the degradation of AML1-ETO fusion protein
[18]
  expression of oncogene c-myc: completely inhibit
[19]; Kasumi-1, 0.1 μM
  cells in G0/G1 phase: 59.62%
  cells in G2/M phase: 6.01%
  cells in S phase: 34.37%
[19]; Kasumi-1, 1 μM
  cells in G0/G1 phase: 71.75%
  cells in G2/M phase: 6.70%
  cells in S phase: 21.75%
[19]; Kasumi-1, 5 μM
  cells in G0/G1 phase: 71.07%
  cells in G2/M phase: 6.00%
  cells in S phase: 21.92%
[19]; Kasumi-1, 24 hours
  cell cycle block: blocked in G0/G1 phase
[20]; HL60, 0.1 μM
  cells in G0/G1 phase: 41.60%
  cells in G2/M phase: 3.80%
  cells in S phase: 54.61%
[20]; HL60, 1 μM
  cells in G0/G1 phase: 44.12%
  cells in G2/M phase: 8.00%
  cells in S phase: 47.88%
[20]; HL60, 5 μM
  cells in G0/G1 phase: 54.48%
  cells in G2/M phase: 8.00%
  cells in S phase: 37.52%
[20]; HL60, 12 hours
  cell cycle block: blocked in G0/G1 phase
[21]
  tumor size compared with control group: obviously little than controls
[22]
  tumor size compared with control group: obviously little than controls
[23]
  tumor size compared with control group: obviously little than controls
